Source: PMC11542186, “Pin1 WW Domain Ligand Library Synthesized with an Easy Solid-Phase Phosphorylating Reagent” (Biochemistry, 2024)
Where a SMILES comes first, the peptide text is derived from it. [ ]: non-standard residue; d: D form. The star is where a group is joined. pS = N[CH](COP(=O)(O)O)C(=O)O; Agmatine = N=C(N)NCCCCN*; Morpholide = C1CN(*)CCO1; Piperidide = C1CCN(*)CC1; Pyrrolidide = C1CCN(*)C1

What follows are compounds tested against T1, Pin1 WW domain (Pin1–HRP) (Homo sapiens, UniProt Q13526) (assay: ELEBA primary screening assay of the library). Conditions: separate plate of groups A and B (L2 control 85.0443); crude library members; DMSO = 100%; mean of N = 2.
T1 construct: purchased R&D Systems
T1 sequence (Q13526 whole entry, the tested form may be a part): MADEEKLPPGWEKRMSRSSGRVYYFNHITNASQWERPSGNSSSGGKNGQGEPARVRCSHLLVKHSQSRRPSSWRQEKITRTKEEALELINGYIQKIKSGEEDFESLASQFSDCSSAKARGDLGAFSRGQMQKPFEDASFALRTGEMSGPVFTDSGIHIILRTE
Type: binding
Procedure: The library was screened by the ELEBA we reported previously.[44] The crude products resulting from diethyl ether precipitation were used for the primary and secondary ELEBA without additional purification. The concentrations of the crude products were estimated based on quantitative yields; actual concentrations were thus lower, depending on yield and purity. The library products were dissolved in DMSO as stock solutions for assays. […] Recombinant human Pin1 conjugated to horseradish peroxidase (Pin1–HRP) was used in the binding assays.[44] Fmoc-VPRpTPVGGGK-NH2 L2 was used as the positive control and DMSO was used as the negative control on each plate. The percent of Pin1–HRP bound to the plate was calculated by normalizing the binding with DMSO to be 100%. In the primary assays (Figure S1), 14 of the best library members were identified: 1{2,d}, 1{18,f}, 1{20,f}, 1{10, l}, 1{13, l}, 1{18, l}, 1{20, l}, 1{10, n}, 1{18, n}, 1{19, n}, 1{2, n}, 1{20, n}, 1{14, o}, 1{3, o}. In the secondary assay, these ligands were measured again at 270 μM, and three hits, 1{2, d}, 1{18, l} and 1{2, n}, were chosen for further analysis (Figure 3).
The Pin1 WW domain ligand, Fmoc–VPRpTPVGGGK–NH2, (100 μL/well, 245 μM stock solution) was covalently attached to a 96-well plate through the ε-amino group of the Lys side chain at pH 11.0, as published.[44] Ligands were dissolved in DMSO at stock concentrations of ca. 50 mM by weight. Competitive binding with plate-linked Fmoc–VPRpTPVGGGK–NH2L1 of pSer–Pro dipeptides was measured at ca. 600 μM for primary screening. In the primary assays, all library members were screened with the crude products. 1{1-21, d} were measured as mixtures of cis- and trans-isomers. Library members synthesized from racemic reagents, such as 1{1-21, c}, 1{1-21, l}, 1{1-21, q}, 1{3, a-q} and 1{8, a-q} were measured as diastereomeric mixtures. The library members were dissolved in DMSO as stock solutions with a concentration of about 37 mM based on estimated yields. The DMSO stock solution of each compound (4 μL) was added into a solution of recombinant Pin1–HRP (R&D Systems) in a PBS buffer with 2% BSA (pH = 7.3). DMSO (4 μL) was used as a negative control. The final volume of the solution was 250 μL, the final concentration of Pin1–HRP was 200 pM, and the estimated final compound concentration was 590 μM. The resulting solution was preincubated for 30 min at ambient temperature, and was added into two wells (100 μL each, for assay in duplicate) of the ligand-linked plate. The solutions were incubated for another 1 h. The solutions were removed by inverting and shaking the plate, and the plate was washed with buffer ([…], and 0.05% Tween 20 in PBS at pH 7.3) three times. A 1:1 solution of hydrogen peroxide and 3,3,5,5′-tetramethylbenzidine (100 μL) was added into each plate well, and incubated in the dark for 20 min. A 2N H2SO4 solution (50 μL) was added to each well to quench the reaction, and the absorbance of was determined at 450 nm. The percentage of Pin1–HRP bound to the plate (% binding) was calculated by eq 1. To calculate the absorbance of a plate well in eq 1, the blank ligand-linked plate was predetermined at the same wavelength, and the absorbance of the blank well was subtracted from the absorbance of the same well containing the final solution. [drawing 2] 1 […]
The Fmoc-Ser(2- […]
cyanoethylphosphate)-OH product was cleaved from the resin with TFA. 1H NMR indicated the presence of the Fmoc group, implying that the substrate was successfully attached to the resin (data not shown). To develop the coupling methods, 2-(2-naphthyl)ethylamine and propionic acid were reacted with the pSer–Pro resin. The resulting propanoyl-pSer–Pro–(2-(2-naphthyl)ethyl)-amide (1H NMR below) was excluded from the library assays.
Figure S1 (following pages). Ligands (group A – O) were screening using ELEBA at ca. 266 µM.
Fmoc-VPRpTPVGGGK-NH2 L2 was used as positive control at 76-87 µM from stock solutions […]
of 4.3-4.8 mM. […]

Compound	% of Pin1-HRP bound to plate-linked ligand
CC(=O)NC(COP(=O)(O)O)C(=O)N1CCCC1C(=O)N(C)CC(C)c1ccccc1 (mixture of isomers) [1{3,a}]	118.382%
CC(CN(C)C(=O)C1CCCN1C(=O)C(COP(=O)(O)O)NC(=O)C=Cc1c[nH]cn1)c1ccccc1 (mixture of isomers) [1{3,b}]	124.358%
CC(=O)NC(COP(=O)(O)O)C(=O)N1CCCC1C(=O)NCCCN1CCCCC1C (mixture of isomers) [1{8,a}]	108.888%
CC1CCCCN1CCCNC(=O)C1CCCN1C(=O)C(COP(=O)(O)O)NC(=O)C=Cc1c[nH]cn1 (mixture of isomers) [1{8,b}]	102.481%
CC(=O)NC(COP(=O)(O)O)C(=O)N1CCCC1C(=O)N1CCCC1 (centres unmarked) [1{1,a}] (Ac-[pS]-Pro-Pyrrolidide; configuration not given here)	111.106%
O=C(C=Cc1c[nH]cn1)NC(COP(=O)(O)O)C(=O)N1CCCC1C(=O)N1CCCC1 (centres unmarked) [1{1,b}]	117.035%
CC(=O)N[C@@H](COP(=O)(O)O)C(=O)N1CCC[C@H]1C(=O)Nc1ccc2[nH]ncc2c1 [1{2,a}]	115.042%
O=C(C=Cc1c[nH]cn1)NC(COP(=O)(O)O)C(=O)N1CCCC1C(=O)Nc1ccc2[nH]ncc2c1 (centres unmarked) [1{2,b}]	113.209%
CC(=O)NC(COP(=O)(O)O)C(=O)N1CCCC1C(=O)NCCc1ccc(O)cc1 (centres unmarked) [1{4,a}]	120.879%
O=C(C=Cc1c[nH]cn1)NC(COP(=O)(O)O)C(=O)N1CCCC1C(=O)NCCc1ccc(O)cc1 (centres unmarked) [1{4,b}]	124.444%
CC(=O)N[C@@H](COP(=O)(O)O)C(=O)N1CCC[C@H]1C(=O)N(C)CCc1ccccn1 [1{5,a}]	108.292%
CN(CCc1ccccn1)C(=O)C1CCCN1C(=O)C(COP(=O)(O)O)NC(=O)C=Cc1c[nH]cn1 (centres unmarked) [1{5,b}]	113.92%
COC(=O)C=C(C)NC(=O)[C@@H]1CCCN1C(=O)[C@H](COP(=O)(O)O)NC(C)=O [1{6,a}]	116.564%
COC(=O)C=C(C)NC(=O)C1CCCN1C(=O)C(COP(=O)(O)O)NC(=O)C=Cc1c[nH]cn1 (centres unmarked) [1{6,b}]	111.464%
CCN(CC)CCCCN(C)C(=O)[C@@H]1CCCN1C(=O)[C@H](COP(=O)(O)O)NC(C)=O [1{7,a}]	99.5048%
CCN(CC)CCCCN(C)C(=O)[C@@H]1CCCN1C(=O)[C@H](COP(=O)(O)O)NC(=O)/C=C/c1c[nH]cn1 [1{7,b}]	108.279%
CC(=O)NC(COP(=O)(O)O)C(=O)N1CCCC1C(=O)NCCc1c[nH]cn1 (centres unmarked) [1{9,a}]	109.367%
O=C(C=Cc1c[nH]cn1)NC(COP(=O)(O)O)C(=O)N1CCCC1C(=O)NCCc1c[nH]cn1 (centres unmarked) [1{9,b}]	117.354%
CC(=O)N[C@@H](COP(=O)(O)O)C(=O)N1CCC[C@H]1C(=O)N1CCN(c2ncccn2)CC1 [1{10,a}]	102.123%
O=C(C=Cc1c[nH]cn1)NC(COP(=O)(O)O)C(=O)N1CCCC1C(=O)N1CCN(c2ncccn2)CC1 (centres unmarked) [1{10,b}]	93.9893%
CC(=O)N[C@@H](COP(=O)(O)O)C(=O)N1CCC[C@H]1C(=O)NCCCCCCN [1{11,a}]	74.9059%
NCCCCCCNC(=O)[C@@H]1CCCN1C(=O)[C@H](COP(=O)(O)O)NC(=O)/C=C/c1c[nH]cn1 [1{11,b}]	79.8617%
CC(=O)NC(COP(=O)(O)O)C(=O)N1CCCC1C(=O)NCCCn1ccnc1 (centres unmarked) [1{12,a}]	109.194%

Next, values leading:

% of Pin1-HRP bound to plate-linked ligand	Compound
94.4757%	O=C(C=Cc1c[nH]cn1)NC(COP(=O)(O)O)C(=O)N1CCCC1C(=O)NCCCn1ccnc1 (centres unmarked) [1{12,b}]
109.315%	CC(=O)NC(COP(=O)(O)O)C(=O)N1CCCC1C(=O)N1CCC(N2CCCCC2)CC1 (centres unmarked) [1{13,a}]
96.4764%	O=C(/C=C/c1c[nH]cn1)N[C@@H](COP(=O)(O)O)C(=O)N1CCC[C@H]1C(=O)N1CCC(N2CCCCC2)CC1 [1{13,b}]
120.534%	CC(=O)N[C@@H](COP(=O)(O)O)C(=O)N1CCC[C@H]1C(=O)NCCc1c[nH]c2ccccc12 [1{14,a}]
109.953%	O=C(C=Cc1c[nH]cn1)NC(COP(=O)(O)O)C(=O)N1CCCC1C(=O)NCCc1c[nH]c2ccccc12 (centres unmarked) [1{14,b}]
110.698%	CC(=O)N[C@@H](COP(=O)(O)O)C(=O)N1CCC[C@H]1C(=O)NC1CCN(Cc2ccccc2)CC1 [1{15,a}]
98.3254%	O=C(C=Cc1c[nH]cn1)NC(COP(=O)(O)O)C(=O)N1CCCC1C(=O)NC1CCN(Cc2ccccc2)CC1 (centres unmarked) [1{15,b}]
112.945%	CC(=O)NC(COP(=O)(O)O)C(=O)N1CCCC1C(=O)NCCCCNC(=N)N (centres unmarked) [1{16,a}] (Ac-[pS]-Pro-Agmatine; configuration not given here)
94.5777%	N=C(N)NCCCCNC(=O)[C@@H]1CCCN1C(=O)[C@H](COP(=O)(O)O)NC(=O)/C=C/c1c[nH]cn1 [1{16,b}]
117.069%	CC(=O)NC(COP(=O)(O)O)C(=O)N1CCCC1C(=O)NCCCN1CCOCC1 (centres unmarked) [1{17,a}]
94.8602%	O=C(/C=C/c1c[nH]cn1)N[C@@H](COP(=O)(O)O)C(=O)N1CCC[C@H]1C(=O)NCCCN1CCOCC1 [1{17,b}]
102.518%	CC(=O)N[C@@H](COP(=O)(O)O)C(=O)N1CCC[C@H]1C(=O)NNC(=O)c1ccco1 [1{18,a}]
87.6813%	O=C(/C=C/c1c[nH]cn1)N[C@@H](COP(=O)(O)O)C(=O)N1CCC[C@H]1C(=O)NNC(=O)c1ccco1 [1{18,b}]
116.14%	CC(=O)N[C@@H](COP(=O)(O)O)C(=O)N1CCC[C@H]1C(=O)N1CCCCC1 [1{19,a}] (Ac-[pS]-Pro-Piperidide)
97.5722%	O=C(C=Cc1c[nH]cn1)NC(COP(=O)(O)O)C(=O)N1CCCC1C(=O)N1CCCCC1 (centres unmarked) [1{19,b}]
115.484%	CC(=O)N[C@@H](COP(=O)(O)O)C(=O)N1CCC[C@H]1C(=O)N1CCOCC1 [1{20,a}] (Ac-[pS]-Pro-Morpholide)
113.792%	CC(=O)NC(COP(=O)(O)O)C(=O)N1CCCC1C(=O)NCCc1ccc2ccccc2c1 (centres unmarked) [1{21,a}]
77.3223%	O=C(C=Cc1c[nH]cn1)NC(COP(=O)(O)O)C(=O)N1CCCC1C(=O)NCCc1ccc2ccccc2c1 (centres unmarked) [1{21,b}]
